Tested on: 945468-187-T-J2-PDC spheroids viability
Assay: Anticancer human tumor 945468-187-T-J2-PDC patient-derived rectal carcinoma cell line growth inhibition [PI3K]
Conditions: spheroids with HUVEC and MSC; for IC50: curve of first compound; for viability, T/C: stronger effect = lower value
Procedure, shortened: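 Agents were dosed from a top concentration near clinical Cmax (otherwise 10 microM) in half-log decrements, alone or combined with PI3K inhibitors. The spheroids contain tumor cells plus endothelial (HUVEC) and MSC stroma; viability is measured.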
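Note: spheroids exposed to compounds for seven days before reading.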

With `CC(C)n1nc(-c2ccc3oc(N)nc3c2)c2c(N)ncnc21` + CC(Nc1ccc2c(c1)OCCn1cc(N3C(=O)OCC3C(F)F)nc1-2)C(N)=O the IC50 (second compound 0.00316 µM) was greater than 100 nM, the IC50 (second compound 0.01 µM) was greater than 100 nM and the IC50 (second compound 0.0316 µM) was greater than 100 nM. For the same compound, the IC50 (second compound 0.1 µM) was greater than 100 nM, the IC50 (second compound 0.316 µM) was 75.4 nM and the IC50 (second compound 1 µM) was 26.7 nM. The viability, T/C (second compound 0.00316 µM, first compound 0.000316 µM) was 141%, the viability, T/C (second compound 0.00316 µM, first compound 0.001 µM) was 114% and the viability, T/C (second compound 0.00316 µM, first compound 0.00316 µM) was 115%. For the same compound, the viability, T/C (second compound 0.00316 µM, first compound 0.01 µM) was 89.4%, the viability, T/C (second compound 0.00316 µM, first compound 0.0316 µM) was 107% and the viability, T/C (second compound 0.00316 µM, first compound 0.1 µM) was 83.7%. For the same compound, the viability, T/C (second compound 0.01 µM, first compound 0.000316 µM) was 168%, the viability, T/C (second compound 0.01 µM, first compound 0.001 µM) was 101% and the viability, T/C (second compound 0.01 µM, first compound 0.00316 µM) was 108%. The viability, T/C (second compound 0.01 µM, first compound 0.01 µM) was 91%, the viability, T/C (second compound 0.01 µM, first compound 0.0316 µM) was 88.8% and the viability, T/C (second compound 0.01 µM, first compound 0.1 µM) was 71%. It also gave a viability, T/C (second compound 0.0316 µM, first compound 0.000316 µM) of 105%, a viability, T/C (second compound 0.0316 µM, first compound 0.001 µM) of 85.2% and a viability, T/C (second compound 0.0316 µM, first compound 0.00316 µM) of 109%. For the same compound, the viability, T/C (second compound 0.0316 µM, first compound 0.01 µM) was 106%, the viability, T/C (second compound 0.0316 µM, first compound 0.0316 µM) was 95.7% and the viability, T/C (second compound 0.0316 µM, first compound 0.1 µM) was 73.4%. For the same compound, the viability, T/C (second compound 0.1 µM, first compound 0.000316 µM) was 81%, the viability, T/C (second compound 0.1 µM, first compound 0.001 µM) was 112% and the viability, T/C (second compound 0.1 µM, first compound 0.00316 µM) was 108%. The viability, T/C (second compound 0.1 µM, first compound 0.01 µM) was 91.8%, the viability, T/C (second compound 0.1 µM, first compound 0.0316 µM) was 101% and the viability, T/C (second compound 0.1 µM, first compound 0.1 µM) was 61.4%. It also gave a viability, T/C (second compound 0.316 µM, first compound 0.000316 µM) of 84.6%, a viability, T/C (second compound 0.316 µM, first compound 0.001 µM) of 89.7% and a viability, T/C (second compound 0.316 µM, first compound 0.00316 µM) of 82.2%. For the same compound, the viability, T/C (second compound 0.316 µM, first compound 0.01 µM) was 81.5%, the viability, T/C (second compound 0.316 µM, first compound 0.0316 µM) was 75.5% and the viability, T/C (second compound 0.316 µM, first compound 0.1 µM) was 41.8%. For the same compound, the viability, T/C (second compound 1 µM, first compound 0.000316 µM) was 87.4%, the viability, T/C (second compound 1 µM, first compound 0.001 µM) was 103% and the viability, T/C (second compound 1 µM, first compound 0.00316 µM) was 75.5%. For the same compound, the viability, T/C (second compound 1 µM, first compound 0.01 µM) was 61.1%, the viability, T/C (second compound 1 µM, first compound 0.0316 µM) was 52.6% and the viability, T/C (second compound 1 µM, first compound 0.1 µM) was 29.4%.
